Activity calls are given as the source filed them. The calls are words filed in the database; no cut-off is given here.
Biological target: T1, RAC-alpha serine/threonine-protein kinase (Homo sapiens, UniProt P31749)
Assay: Inhibition of PKB activation in human overnight starved MCF7 cells assessed as phosphorylated Akt at Ser473 level at 50 ug/ml after 1 hr followed by treated with 1 ug/mL of insulin for 15 mins by Western blotting

T1 sequence (P31749 whole entry): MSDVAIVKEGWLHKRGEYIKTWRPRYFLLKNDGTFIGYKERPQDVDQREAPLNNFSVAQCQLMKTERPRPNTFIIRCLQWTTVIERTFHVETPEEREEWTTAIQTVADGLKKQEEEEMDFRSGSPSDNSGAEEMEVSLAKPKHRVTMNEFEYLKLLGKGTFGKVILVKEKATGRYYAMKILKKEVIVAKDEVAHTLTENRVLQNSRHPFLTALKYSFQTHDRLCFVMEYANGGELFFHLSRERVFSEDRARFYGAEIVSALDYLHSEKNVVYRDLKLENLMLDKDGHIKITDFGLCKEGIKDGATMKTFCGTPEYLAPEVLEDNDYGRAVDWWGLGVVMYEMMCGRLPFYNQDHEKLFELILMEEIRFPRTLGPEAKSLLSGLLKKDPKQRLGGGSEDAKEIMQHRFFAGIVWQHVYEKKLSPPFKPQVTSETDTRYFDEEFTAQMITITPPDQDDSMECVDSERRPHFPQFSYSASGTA

| SMILES | inhibition of PKB activation (active/not active) |
| --- | --- |
| CCc1ccc(OC(C)=O)c(Cc2cc(CCCl)ccc2OC(C)=O)c1 | Active |
| CC(=O)Oc1ccccc1Cc1cc(CCCl)ccc1OC(C)=O | Active |
| CC(=O)Oc1ccccc1Cc1ccccc1OC(C)=O | inactive |
| CCc1ccc(Cc2cc(CCCl)ccc2OC(C)=O)c(OC(C)=O)c1 | Active |
| CCc1ccc(OC(C)=O)c(Cc2cc(CC)ccc2OC(C)=O)c1 | Active |
| CCc1ccc(OC(C)=O)c(Cc2ccccc2OC(C)=O)c1 | inactive |

Biological target: T1, RAC-alpha serine/threonine-protein kinase
Assay: Inhibition of PKB/Akt activation in human overnight starved MCF7 cells assessed as phosphorylated Akt at Ser473 level at 50 ug/ml after 1 hr followed by treated with 1 ug/mL of insulin for 15 mins by Western blotting
Assay type: cell-based

| SMILES | IC50 [µM] |
| --- | --- |
| CCc1ccc(OC(C)=O)c(Cc2cc(CCCl)ccc2OC(C)=O)c1 | 25 |

Reference: ChEMBL document CHEMBL1250440, “Development of chemical probes: toward the mode of action of a methylene-linked di(aryl acetate) E1” (Bioorg Med Chem, 2010)
